In patent US11912675B1, “N'-(2-(5-(4-chlorophenyl)-1,3,4-oxadiazol-2-ylthio)acetoxy)-3,4-dimethoxybenzimidamide as an antimicrobial compound” (KING FAISAL UNIVERSITY, priority 2023, dated 2024):

Tests used:
Assay type in all cases: cell-based
[1] = system: Staphylococcus aureus; assay: agar plate disc-diffusion, antibacterial, Staphylococcus aureus; settings: nutrient agar, 37° C., 48 h, DMSO control zone subtracted
Protocol: (§1) The agar plate disc-diffusion method was applied. […] The discs were then placed onto the surface of agar plates (nutrient agar for bacteria and Sabouraud's dextrose agar for fungi) seeded with the test organism. Each plate contained 15 mL of the agar medium, previously seeded with 0.2 mL of the broth culture of each organism pregrown for 18 h. The plates were incubated at 37° C. for 48 h, and 72 h for fungi. The inhibition zones was measured in mm. Discs impregnated with DMSO were used as a control, and its inhibition zone was subtracted from the tested compound actual inhibition zone.
(§2) The antibacterial activity was screened against gram positive bacteria namely Bacillus cereus and Staphylococcus aureus and gram-negative bacterial strains namely Pseudomonas aeruginosa and Escherichia coli, while the antifungal activity was screened against Aspergillus flavus and Chrysosporium keratinophilum as shown in Table 1 and 2.

[2] = system: Bacillus cereus; assay: agar plate disc-diffusion, antibacterial, Bacillus cereus; settings: nutrient agar, 37° C., 48 h, DMSO control zone subtracted
Protocol: as §1, §2

[3] = system: Aspergillus flavus; assay: agar plate disc-diffusion, antifungal, Aspergillus flavus; settings: Sabouraud's dextrose agar, 72 h, DMSO control zone subtracted
Protocol: as §1, §2

[4] = system: Pseudomonas aeruginosa; assay: agar plate disc-diffusion, antibacterial, Pseudomonas aeruginosa; settings: nutrient agar, 37° C., 48 h, DMSO control zone subtracted
Protocol: as §1, §2

[5] = system: Escherichia coli; assay: agar plate disc-diffusion, antibacterial, Escherichia coli; settings: nutrient agar, 37° C., 48 h, DMSO control zone subtracted
Protocol: The agar plate disc-diffusion method was applied. Sterilized filter papers (6 mm in diameter) were wetted with 10 μL of a solution of N′-(2-(5-(4-chlorophenyl)-1,3,4-oxadiazol-2-ylthio)acetoxy)-3,4-dimethoxybenzimidamide (3) to be tested, containing 10 mg/mL in DMSO, and the discs were allowed to air dry. The discs were then placed onto the surface of agar plates (nutrient agar for bacteria and Sabouraud's dextrose agar for fungi) seeded with the test organism. Each plate contained 15 mL of the agar medium, previously seeded with 0.2 mL of the broth culture of each organism pregrown for 18 h. The plates were incubated at 37° C. for 48 h, and 72 h for fungi. The inhibition zones was measured in mm. Discs impregnated with DMSO were used as a control, and its inhibition zone was subtracted from the tested compound actual inhibition zone.
as §2

[6] = system: Chrysosporium keratinophilum; assay: agar plate disc-diffusion, antifungal, Chrysosporium keratinophilum; settings: Sabouraud's dextrose agar, 72 h, DMSO control zone subtracted
Protocol: as §1, §2

[7] = A = concentration of comp. = 10,000 μg/mL
[8] = B = concentration of comp. = 30,000 μL
[9] = C = concentration of comp. = 50,000 μL
[10] = A = concentration of comp. = 10,000 μL

Structure (SMILES): COc1ccc(/C(N)=N/OC(=O)CSc2nnc(-c3ccc(Cl)cc3)o2)cc1OC [compound 3, N′-(2-(5-(4-chlorophenyl)-1,3,4-oxadiazol-2-ylthio)acetoxy)-3,4-dimethoxybenzimidamide]
- inhibition zone, Staphylococcus aureus, A [1, 7]: 17 mm
- inhibition zone, Staphylococcus aureus, B [1, 8]: 22 mm
- inhibition zone, Staphylococcus aureus, C [1, 9]: 37 mm
- inhibition zone, Bacillus Cereus, A ([2]; A =): 27 mm
- inhibition zone, Bacillus Cereus, B [2, 8]: 30 mm
- inhibition zone, Bacillus Cereus, C [2, 9]: 40 mm
- inhibition zone, Aspergillus flavus, A [3, 10]: 22 mm
- inhibition zone, Aspergillus flavus, B [3, 8]: 26 mm
- inhibition zone, Aspergillus flavus, C [3, 9]: 37 mm
- inhibition zone, Pseudomonas aeruginosa, A [4, 10]: 25 mm
- inhibition zone, Pseudomonas aeruginosa, B [4, 8]: 29 mm
- inhibition zone, Pseudomonas aeruginosa, C [4, 9]: 41 mm
- inhibition zone, Escherichia coli, A [5, 7]: 28 mm
- inhibition zone, Escherichia coli, B [5, 8]: 31 mm
- inhibition zone, Escherichia coli, C [5, 9]: 48 mm
- inhibition zone, Chrysosporium keratinophilum, A ([6]; A =): 26 mm
- inhibition zone, Chrysosporium keratinophilum, B [6, 8]: 27 mm
- inhibition zone, Chrysosporium keratinophilum, C [6, 9]: 40 mm
